In patent US20240173353A1, “UNIVERSAL CHIMERIC ANTIGEN RECEPTOR T-CELL AND APPLICATION THEREOF” (SHANGHAI IASO BIOTECHNOLOGY CO., LTD., priority 2021, published 2024):

Tests used:
T cells = assay: T cell activation by anti-CD3/CD28 DynaBeads, CD25/CD69/4-1BB expression by flow cytometry
Description: The inventors pre-treated T cells with dasatinib or DMSO for 5 hr, then activated T cells with anti-CD3/CD28 DynaBeads for 24 hr, and then detected the expression of activation molecules CD25, CD69 and 4-1BB by flow cytometry.
In order to verify the tolerance of the LCK-T316I mutation to the function of dasatinib, the inventors carried out experimental verification on the T cells with LCK edited with different sgRNA lengths prepared in Example 2.
The inventors isolated CD3-positive T cells from human peripheral blood and divided them into eleven portions for processing, with 1e5 cells in each portion. One of these portions was not treated with dasatinib, anti-CD3/CD28 DynaBeads were not added to activate TCR, and this portion was as the initial control group; the other 10 portions of cells were pretreated with different concentrations of dasatinib for 4 hr, ten concentrations ranging from 0 nM to 50 nM were set, and then anti-CD3/CD28 DynaBeads were added to activate TCR signals overnight. On the second day, the expression of CD25, CD69 and 4-1BB activation signals was detected, and the activation of TCR signals was detected. Two replicates were set for each group of experiments.
The inventors divided each of the three groups of edited cells into 6 sub-groups and cultured them in a flat-bottomed 96-well plate. Each sub-group contained two technical replicates, and each well contained 0.15×10^6 cells. […] Subsequently, the cells were cultured for 18 hr. The activated T cell surface marker molecule 4-1BB was detected by using the APC-labeled murine IgG monoclonal antibody, and the activated T cell surface marker molecule CD25 was detected by using the PE-labeled murine IgG monoclonal antibody, and the activated T cell surface marker CD69 was detected by FITC-labeled murine IgG monoclonal antibody.
The inventors conducted research using two groups of T cells (CBE3 control group and Km edited group) in the above experiments. The experimental procedure is basically the same as the above-mentioned experiment (FIG. 32B). The two groups of edited cells were each divided into 7 sub-groups and cultured them in a flat-bottomed 96-well plate. Each sub-group contained two technical replicates, and each well contained 0.15×10^6 cells. […] Subsequently, the cells were cultured for 18 hr. The activated T cell surface marker molecule 4-1BB was detected by using the APC-labeled murine IgG monoclonal antibody, and the activated T cell surface marker molecule CD25 was detected by using the PE-labeled murine IgG monoclonal antibody, and the activated T cell surface marker CD69 was detected by FITC-labeled murine IgG monoclonal antibody.

anti-BCMA-CAR-T cells = assay: CD107a translocation of anti-BCMA-CAR-T cells co-incubated with target cells; assay type: cell-based, human; settings: wild-type anti-BCMA CAR-T, adjusted to 0 nM
NK cells = assay: CD107a release of NK cells activated by K562; assay type: cell-based, human
Procedure: The inventor used Miltenyi human NK sorting magnetic beads to separate NK cells from human peripheral blood, and used DAKEWE NK medium to culture and expand them in vitro. On Day 8, a population of NK cells with more than 95% having positive CD56 expression could be obtained. These NK cells were taken out and treated with 0 nM, 100 nM and 200 nM dasatinib respectively for 24 hr, and then divided into two groups, one of which was not activated, and the other group was stimulated with MHC-class I molecule-deficient K562 cells for 5 hr. Then, the CD107a release of NK cells were detected in both of them.
The inventors isolated NK cells from human PBMCs, and then cultured and differentiated them in NK medium to obtain CD56-positive NK cells with a purity higher than 95%. The exploration of the threshold of NK activation with dasatinib was carried out with seven concentrations in the range of 0-50 nM, namely 0, 10, 20, 25, 30, 40 and 50 nM, and the treatment was carried out overnight. The next day, the cells were resuspended with NK medium and activated with K562. Lymphocyte activator was used as a positive control for activation, and a part of NK cells that were not activated by K562 were also kept. Two replicates were set for each group. anti-CD107a antibody and monensin were added while carrying out activation, and after co-incubation for 6 hr, the CD107a release of CD56-positive NK cells was detected by flow cytometry.
The inventors isolated NK cells from human PBMCs, and then cultured and differentiated them in NK medium to obtain CD56-positive NK cells with a purity higher than 95%. Three pretreatments were done respectively (1) absence of dasatinib pretreatment; (2) pretreatment with […] pretreatment with 50 nM dasatinib, and the cells were cultured overnight. The next day, the concentration of dasatinib was reduced, and the concentration was adjusted to 0, 7.5, 12.5, 17.5 and 25 nM respectively. […] Two replicates were set for each group.
In order to repeatedly verify that the inhibition of NK cell activation function by dasatinib has an extended effect, the inventors repeated the above experiment. […] After 4 hr of co-incubation, CD107a release from CD56 positive NK cells was detected.
The inventors used CD3-negative cells in human PBMCs, which contained more than 5% of CD56-positive NK cells. […] The next day, the cells were resuspended with NK medium and activated with K562. Lymphocyte activator was used as a positive control for activation, and a part of NK cells that were not activated by K562 were also kept. Two replicates were set for each group. anti-CD107a antibody and monensin were added while carrying out activation, and after co-incubation for 6 hr, the CD107a release of CD56-positive NK cells was detected by flow cytometry.
The inventors isolated NK cells from human PBMCs, and then cultured and differentiated them in NK medium to obtain CD56-positive NK cells with a purity higher than 95%. […] Two replicates were set for each group.

CD19-UCART cells = assay: CD107a release of CD19-UCART co-incubated with Raji, dynamic ponatinib concentration; assay type: cell-based, human
Procedure: In this example, the inventors used the prepared CD19-UCART and Km-edited CD19-UCART cells in the experiments. […] The next day, the concentration was adjusted to 0, 50, 100 and 200 nM in the group of 200 nM pretreatment overnight, and the concentration was adjusted to 0, 100, 200 nM and 300 nM in the group of 500 nM pretreatment overnight. […] Two technical replicates were set for each group. After 4 hr of co-incubation, CD107a release in CD8 and CAR double-positive cells was detected.

[1] = CBE3 control group, 200 nM ponatinib
[2] = Km edited group, 500 nM ponatinib
[3] = Km group (30% T316I), 200 nM ponatinib
[4] = Sg12 control group, 200 nM ponatinib
[5] = second experiment, Km group, 200 nM ponatinib

In the case of `Cc1ccc(C(=O)Nc2ccc(CN3CCN(C)CC3)c(C(F)(F)F)c2)cc1C#Cc1cnc2cccnn12` [ponatinib], the “number of cells (survival of T cells)” value (T cells; 1000 nM ponatinib) was “significantly reduced”, the “CD25 and 4-1BB double-positive cells” value (T cells; [1]) was 1.00% and the “CD25 and CD69 double-positive cells” value (T cells; [1]) was 5.59%. The “CD25 and 4-1BB double-positive cells” value (T cells; [2]) was 2.42%, the “CD25 and CD69 double-positive cells” value (T cells; [2]) was 6.75% and the “CD25 and 4-1BB double-positive cells” value (T cells; [3]) was 24.1%. For the same compound, the “CD25 and CD69 double-positive cells” value (T cells; [3]) was 17.7%, the “CD25 and 4-1BB double-positive cells” value (T cells; [4]) was 1.85% and the “CD25 and CD69 double-positive cells” value (T cells; [4]) was 5.31%. For the same compound, the “concentration that effectively inhibits activation of T cells” value (T cells; in vitro) was 200 nM, the “cells expressing CD25 and 4-1BB” value (T cells; [5]) was 19.71% and the “cells expressing CD25 and CD69” value (T cells; [5]) was 23.9%. For the same compound, the “percentage of CD107a positive cells” value (anti-BCMA-CAR-T cells; 200 nM ponatinib pretreatment, RPMI-8226 4 hr) was “about 16%”, the “percentage of CD107a positive cells” value (anti-BCMA-CAR-T cells; 500 nM pretreatment) was “about 3%” and the “release of CD107a” value (NK cells; NK cells, highest ponatinib pretreatment (200 nM), lowered to 0 nM, K562) was “above 38%”. The “concentration that effectively inhibits NK cell activation in vitro” value (NK cells; ponatinib) was 200 nM, the “concentration that shuts down activation of CD19-UCART with LCK-T316I mutation” value (CD19-UCART cells) was 500 nM and the “percentage of CD107a-positive cells” value (CD19-UCART cells; CD19-UCART group, 200 nM pretreatment overnight, adjusted to 0 nM, Raji 4 hr) was 17.2%. For the same compound, the “percentage of CD107a-positive cells” value (CD19-UCART cells; CD19-UCART group, 200 nM pretreatment, 50 nM) was 0.485%, the “percentage of CD107a-positive cells” value (CD19-UCART cells; CD19-UCART group, 200 nM pretreatment, 200 nM, Raji 4 hr) was 0.735% and the “percentage of CD107a-positive cells” value (CD19-UCART cells; CD19-UCART group, 500 nM pretreatment, 300 nM) was 0.495%. For the same compound, the “percentage of CD107a-positive cells” value (CD19-UCART cells; CD19-UCART group, 500 nM pretreatment, adjusted to 0 nM) was 1.73%, the “percentage of CD107a-positive cells” value (CD19-UCART cells; Km-edited CD19-UCART group, 200 nM pretreatment, 200 nM) was 5.12% and the “percentage of CD107a-positive cells” value (CD19-UCART cells; Km-edited CD19-UCART group, 200 nM pretreatment, adjusted to 0 nM) was 16.6%. The “percentage of CD107a-positive cells” value (CD19-UCART cells; Km-edited CD19-UCART group, 500 nM pretreatment, 300 nM) was 1.47% and the “percentage of CD107a-positive cells” value (CD19-UCART cells; Km-edited CD19-UCART group, 500 nM pretreatment, adjusted to 0 nM) was 11.15%.
